Measurements published in patent publication US20060194883A1, “Mmp expression inhibitor” (EISAI CO., LTD, priority 2003, published 2006).

How the values were obtained:
GAPDH = assay: RT-PCR of invasion-related factors in hepatic cancer cells; format: cell-based; conditions: hepatic cancer cells (HepG2, Hep3B, Huh7)
Method: (§1) Test was performed by RT-PCR to investigate MMP expression. This test was to investigate expression of various MMPs (MMP-1, MMP-2, MMP-3, MMP-7, MMP-9 and MMP-14 (MT1-MMP)) and of transcription factor Ets-1 that affect MMP expression and the extracellular matrix receptor β1 integrin when menatetrenone was added to various hepatic cancer cells (HepG2, Hep3B, Huh7).

MMP-1 [1] = assay: as above; format: cell-based; conditions: hepatic cancer cells (HepG2, Hep3B, Huh7)
Method: as §1

β1 integrin = assay: as above; format: cell-based; conditions: hepatic cancer cells (HepG2, Hep3B, Huh7)
Method: as §1

[2] = test system: transcription factor Ets-1; assay: as above; format: cell-based; conditions: hepatic cancer cells (HepG2, Hep3B, Huh7)
Method: as §1

MMP-14 (MT1-MMP) = assay: as above; format: cell-based; conditions: hepatic cancer cells (HepG2, Hep3B, Huh7)
Method: as §1

MMP-7 [3] = assay: as above; format: cell-based; conditions: hepatic cancer cells (HepG2, Hep3B, Huh7)
Method: as §1

MMP-3 [4] = assay: as above; format: cell-based; conditions: hepatic cancer cells (HepG2, Hep3B, Huh7)
Method: as §1

MMP-1 [5] = assay: gene expression with TPA induction, Western blot; format: cell-based; conditions: HepG2, 20 nM TPA then menatetrenone
Method: (§2) MMP and Ets-1, the expression of which is inhibited by menatetrenone, are known to be genes that are induced by 12-O-tetradecanoylphorbol-13-acetate (TPA) as well as uPA (urokinase plasminogen activator) and the like. In order to discover whether menatetrenone controls expression of genes activated by TPA, TPA was added to HepG2 cultured hepatic cancer cells at a concentration of 20 nM, menatetrenone was then added thereto, and RT-PCR and Western blot were performed to investigate whether expression of the aforementioned gene expression of which was induced by TPA was affected. […] On the other hand, the uPA receptor uPAR and the uPA inhibitor PAI were not affected.

MMP-3 [6] = assay: gene expression with TPA induction, Western blot; format: cell-based; conditions: HepG2, 20 nM TPA then menatetrenone
Method: as §2

MMP-7 promoter = assay: MMP gene promoter activity test (luciferase reporter); format: cell-based; conditions: Huh7 cells, 48 hours
Method: (§3) Next, promoter reporter genes for MMP-1, MMP-3 and MMP-7 were introduced into Huh7 hepatic cancer cells, and the effect of menatetrenone on the activity of these MMP promoters was investigated. The MMP-1, MMP-3 and MMP-7 promoter-luciferase reporter plasmids used were prepared by replacing the reporter gene part of the MMP promoter-CAT reporter plasmid reported in Ozaki I, Mizuta T, Zhang H, Yoshimura T, Kawazoe S, Eguchi Y, Yasutake T, Hisatomi A, Sakai T and Yamamoto K, “Induction of multiple matrix metalloproteinase genes in human hepatocellular carcinoma by hepatocyte growth factor via a transcription factor Ets-1,” Hepatol. Res. 27, 288-300. The various MMP-luciferase plasmids were introduced into Huh7 hepatic cancer cells using lipofectamine, menatetrenone was added at various concentrations, and after 48 hours the cells were collected and luciferase activity measured to investigate the effects of menatetrenone on MMP-1, MMP-3 and MMP-7 gene promoter activity.

MMP-3 promoter = assay: as above; format: cell-based; conditions: Huh7 cells, 48 hours
Method: as §3

MMP-1 promoter = assay: as above; format: cell-based; conditions: Huh7 cells, 48 hours
Method: as §3

p16 = assay: CDK inhibitor expression by RT-PCR in hepatic cancer cells; format: cell-based; conditions: 10^−6 to 10^−4 M
Method: (§4) To investigate the mechanism of inhibition of cell proliferation, genes involved in promoting the cell cycle were focused on, and changes caused by addition of menatetrenone in the amount of expression of CDK inhibitors p21, p27 and p16 which inhibit cyclin dependent kinase (CDK), an enzyme which promotes the cell cycle, were analyzed by the RT-PCR and Western blot methods. In this test, menatetrenone was added at concentrations of 0 M, 10^−6 M, 10^−5 M and 10^−4 M to HepG2, Huh7, Hep3B and HLE hepatic cancer cell lines, RNA was collected after 48 hours, and 1 μg of total RNA was subjected to RT-PCR to investigate expression of p21, p27 and p16. RT-PCR was performed on GAPDH (glyceraldehyde 3-phosphate dehydrogenase) as a control.

[7] = cited from earlier work
[8] = test system: Hep3B hepatic cancer cell line; assay: cell proliferation by WST assay; format: cell-based; conditions: 10^−6 to 10^−4 M, 48 hours, vs control without menatetrenone
Method: (§5) Menatetrenone was added at concentrations of 0 M, 10^−6 M, 10^−5 M and 10^−4 M to HepG2, Huh7, Hep3B and HLE hepatic cancer cell lines, and cell proliferation was studied by WST assay after 48 hours.

[9] = test system: Huh7 hepatic cancer cell line; assay: cell proliferation by WST assay; format: cell-based; conditions: 10^−6 to 10^−4 M, 48 hours, vs control without menatetrenone
Method: as §5

[10] = test system: HepG2 hepatic cancer cell line; assay: cell proliferation by WST assay; format: cell-based; conditions: 10^−6 to 10^−4 M, 48 hours, vs control without menatetrenone
Method: as §5

[11] = test system: HLE hepatic cancer cell line; assay: cell proliferation by WST assay; format: cell-based; conditions: 10^−6 to 10^−4 M, 48 hours, vs control without menatetrenone
Method: as §5

[12] = test system: hepatic cancer cells (HepG2); assay: Matrigel invasion test (double chamber); format: cell-based; conditions: 10^−6 to 10^−4 M, 24 hours, NIH3T3 feeder
Method: To investigate the effect of menatetrenone in inhibiting invasion and metastasis of cancer cells, menatetrenone was added to hepatic cancer cells (HepG2) at concentrations of 0 M, 10^−6 M, 10^−5 M and 10^−4 M, and ability of the cancer cells to invade Matrigel was measured. In this test, cancer cells were spread on Matrigel which had been coated on the upper chamber of a double chamber, menatetrenone was added thereto. NIH3T3 cells were spread on the lower chamber as a feeder. The number of cells that had passed through the Matrigel and migrated to the bottom of the upper chamber after 24 hours was observed microscopically.

p21 = assay: CDK inhibitor expression by RT-PCR and Western blot in hepatic cancer cells; format: cell-based; conditions: 10^−6 to 10^−4 M
Method: as §4, with “control. In this test, menatetrenone was added at concentrations of 0 M, 10^−6 M, 10^−5 M and 10^−4 M to HepG2, Huh7, Hep3B and HLE hepatic cancer cell lines, proteins were extracted from the various cells, subjected to SDS-PAGE electrophoresis, blotted on PVP membranes and then incubated with p21 and p27 antibodies, and p21 and p27 protein expression was investigated by ECL.” for “control.”

p27 = assay: as above; format: cell-based; conditions: 10^−6 to 10^−4 M
Method: as §4, with “control. In this test, menatetrenone was added at concentrations of 0 M, 10^−6 M, 10^−5 M and 10^−4 M to HepG2, Huh7, Hep3B and HLE hepatic cancer cell lines, proteins were extracted from the various cells, subjected to SDS-PAGE electrophoresis, blotted on PVP membranes and then incubated with p21 and p27 antibodies, and p21 and p27 protein expression was investigated by ECL.” for “control.”

HLE hepatic cancer cells = assay: cell cycle analysis by flow cytometry (FACS); format: cell-based; conditions: 10^−6 to 10^−4 M, 48 hours
Method: (§6) To investigate the effects of menatetrenone on the cell cycles of cancer cells, distributions according to DNA amount in hepatic cancer cells to which menatetrenone had been added were analyzed by flow cytometry (FACS). In this test, menatetrenone was added at concentrations of 0 M, 10^−6 M, 10^−5 M and 10^−4 m to HepG2, Huh7, Hep3B and HLE hepatic cancer cells, and changes in the cell cycles were observed by FACS 48 hours later.

[13] = test system: Hep3B hepatic cancer cells; assay: cell cycle analysis by flow cytometry (FACS); format: cell-based; conditions: 10^−6 to 10^−4 M, 48 hours
Method: as §6

[14] = test system: Huh7 hepatic cancer cells; assay: cell cycle analysis by flow cytometry (FACS); format: cell-based; conditions: 10^−6 to 10^−4 M, 48 hours
Method: as §6

[15] = test system: HepG2 hepatic cancer cells; assay: cell cycle analysis by flow cytometry (FACS); format: cell-based; conditions: 10^−6 to 10^−4 M, 48 hours
Method: as §6

MMP-1 [16] = assay: gene expression with TPA induction, RT-PCR; format: cell-based; conditions: HepG2; 20 nM TPA then menatetrenone
Method: as §2

[17] = test system: uPA (urokinase plasminogen activator); assay: gene expression with TPA induction, RT-PCR; format: cell-based; conditions: HepG2; 20 nM TPA then menatetrenone
Method: as §2

Ets-1 = assay: gene expression with TPA induction, RT-PCR; format: cell-based; conditions: HepG2; 20 nM TPA then menatetrenone
Method: as §2

MMP-7 [18] = assay: gene expression with TPA induction, RT-PCR; format: cell-based; conditions: HepG2; 20 nM TPA then menatetrenone
Method: as §2

MMP-3 [19] = assay: gene expression with TPA induction, RT-PCR; format: cell-based; conditions: HepG2; 20 nM TPA then menatetrenone
Method: as §2

[20] = cited from earlier work; remark: listed apart in the source
AP-1 = assay: gel shift assay of transcription factor binding activity; format: cell-based; conditions: HepG2 nuclear proteins after 24 hours; 32P-labeled DNA probe
Method: (§7) MMP have binding sites for transcription factors AP-1, Ets-1, Tcf/Lef and the like at common to their promoter regions and which are known to regulate MMP expression. Gel shift assay was performed to investigate whether the binding activity of transcription factors AP-1 and Tcf/Lef, which regulate MMP expression, is affected by addition of menatetrenone. In this test menatetrenone was added to HepG2 hepatic cancer cells, nuclear proteins were extracted after 24 hours and reacted with double-stranded DNA having binding sites for AP-1 and Tcf/Lef labeled with ^32P, and gel shift assay was performed. […] Reduction and shifting of the band was also seen with anti-c-fos antibodies (“S” in the Figure).

Tcf/Lef = assay: as above; format: cell-based; conditions: HepG2 nuclear proteins after 24 hours; 32P-labeled DNA probe
Method: as §7

MMP-1 [21] = assay: Western blot of MMP protein expression in hepatic cancer cells; format: cell-based; conditions: hepatic cancer cells (HepG2, Hep3B, Huh7)
Method: (§8) Testing was performed by Western blot to investigate MMP expression. In this test protein expressions of MMP-1 and MMP-3 were investigated when menatetrenone was added to various hepatic cancer cells (HepG2, Hep3B, Huh7).

MMP-3 [22] = assay: as above; format: cell-based; conditions: hepatic cancer cells (HepG2, Hep3B, Huh7)
Method: as §8

- MMP-7 promoter activity (MMP-7 promoter): dose-dependently inhibited
- MMP-3 promoter activity (MMP-3 promoter): dose-dependently inhibited
- MMP-1 promoter activity (MMP-1 promoter): dose-dependently inhibited
- TPA-induced mRNA expression of uPA [17]: dose-dependently inhibited
- binding activity of AP-1 (AP-1): dose-dependently inhibited
- binding activity of Tcf/Lef (Tcf/Lef): did not affect
SMILES: CC(C)=CCC/C(C)=C/CC/C(C)=C/CC/C(C)=C/CC1=C(C)C(=O)c2ccccc2C1=O [menatetrenone, 2-methyl-3-tetraprenyl-1,4-naphthoquinone]
- expression of GAPDH mRNA (GAPDH): no changes
- expression of mRNA of MMP-1 (MMP-1 [1]): dose-dependently inhibited
- expression of β1 integrin mRNA (β1 integrin): no changes
- expression of the transcription factor Ets-1 [2]: dose-dependently inhibited
- expression of mRNA of MMP-14 (MMP-14 (MT1-MMP)): dose-dependently inhibited
- expression of mRNA of MMP-7 (MMP-7 [3]): dose-dependently inhibited
- expression of mRNA of MMP-3 (MMP-3 [4]): dose-dependently inhibited
- TPA-induced expression of MMP-1 at the protein level (MMP-1 [5]): dose-dependently inhibited
- TPA-induced expression of MMP-3 at the protein level (MMP-3 [6]): dose-dependently inhibited
- decrease of MMP-7 promoter activity (MMP-7 promoter): ~50%
- decrease of MMP-1 promoter activity (MMP-1 promoter): ~50%
- p16 expression (p16; Hep3B cells): slight increase
- p16 expression (p16; Huh7 cells): no changes
- stability to light [7]: easily decomposed by light
- cell proliferation [8]: dose-dependently inhibited
- cell proliferation [9]: dose-dependently inhibited
- cell proliferation [10]: dose-dependently inhibited
- cell proliferation [11]: dose-dependently inhibited
- ability of cancer cells to invade Matrigel [12]: dose-dependently inhibits
- p21 expression (p21; Hep3B cells): slight increase
- p21 mRNA expression (p21; HepG2 cells, 48 hours): increases
- p21 expression (p21; Huh7 cells): no changes
- p27 expression (p27; Hep3B cells): no change
- p27 mRNA expression (p27; HepG2 cells, 48 hours): increases
- p27 expression (p27; Huh7 cells): no changes
- G2-phase cells (HLE hepatic cancer cells): decreased
- proportion of G1-phase cells (HLE hepatic cancer cells): increased dose-dependently
- G2-phase cells [13]: decreased
- proportion of G1-phase cells [13]: increased dose-dependently
- G2-phase cells [14]: decreased
- proportion of G1-phase cells [14]: increased dose-dependently
- G2-phase cells [15]: decreased
- proportion of G1-phase cells [15]: increased dose-dependently
- TPA-induced mRNA expression of MMP-1 (MMP-1 [16]): dose-dependently inhibited
- TPA-induced mRNA expression of Ets-1 (Ets-1): dose-dependently inhibited
- TPA-induced mRNA expression of MMP-7 (MMP-7 [18]): dose-dependently inhibited
- TPA-induced mRNA expression of MMP-3 (MMP-3 [19]): dose-dependently inhibited
- solubility in water [20]: dissolves very little
- protein expression of MMP-1 (MMP-1 [21]): inhibited
- protein expression of MMP-3 (MMP-3 [22]): inhibited
